In brackets after ≈: the same amount, converted by molar mass. Activity calls are given as the source filed them. No cut-off for these calls is given here.
What was measured:
[1] = test system: Mycolicibacterium smegmatis; test: Antimycobacterial activity against PknGMsm-deficient Mycobacterium smegmatis by Etest method; type: functional
[2] = test system: Mycolicibacterium smegmatis; test: Antimycobacterial activity against Mycobacterium smegmatis harboring PknG Msm gene by Etest method; type: functional
[3] = test system: Mycolicibacterium smegmatis; test: Antimycobacterial activity against PknGMsm-deficient Mycobacterium smegmatis harboring PknG K181M mutant gene by Etest method; type: functional
[4] = test system: Mycolicibacterium smegmatis; test: Antimycobacterial activity against Mycobacterium smegmatis MC2 155 harboring PknG K181M mutant gene by Etest method; type: functional; conditions: str. MC2 155
[5] = test system: Mycobacterium tuberculosis; test: Antimycobacterial activity against PknGMtb-deficient Mycobacterium tuberculosis H37Rv at 100 mg/l after 7 days by microscopy; type: functional, organism-based
[6] = test system: Mycobacterium tuberculosis; test: Antimycobacterial activity against Mycobacterium tuberculosis H37Rv at 100 mg/l after 7 days by microscopy; type: functional, organism-based
[7] = test system: Mycolicibacterium smegmatis; test: Antimycobacterial activity against Mycobacterium smegmatis MAR4 harboring disrupted PknGMsm gene by Etest method; type: functional
[8] = test system: Mycolicibacterium smegmatis; test: Antimycobacterial activity against Mycobacterium smegmatis MC2 155 by Etest method; type: functional; conditions: str. MC2 155

SMILES	MIC [1] [µg/mL]	MIC [2] [µg/mL]	MIC [3] [µg/mL]	MIC [4] [µg/mL]	Activity [5]	Activity [6]	MIC [7] [µg/mL]	MIC [8] [µg/mL]
CC[C@H]1OC(=O)[C@H](C)[C@@H](O[C@H]2C[C@@](C)(OC)[C@@H](O)[C@H](C)O2)[C@H](C)[C@@H](O[C@@H]2O[C@H](C)C[C@H](N(C)C)[C@H]2O)[C@](C)(O)C[C@@H](C)C(=O)[C@H](C)[C@@H](O)[C@]1(C)O [ERYTHROMYCIN]	3 (≈ 4.09 µM)	32 (≈ 43.6 µM)	3 (≈ 4.09 µM)	12 (≈ 16.4 µM)	Active	inactive	4 (≈ 5.45 µM)	32 (≈ 43.6 µM)
CC[C@@H](CO)NCCN[C@@H](CC)CO [ETHAMBUTOL]	0.064 (≈ 0.313 µM)	0.25 (≈ 1.22 µM)		0.064 (≈ 0.313 µM)			0.064 (≈ 0.313 µM)	0.25 (≈ 1.22 µM)
C[C@@H](O)[C@H]1C(=O)N2C(C(=O)O)=C(SCCNC=N)C[C@H]12 [IMIPENEM ANHYDROUS]	0.38 (≈ 1.27 µM)	6 (≈ 20 µM)	0.38 (≈ 1.27 µM)	1 (≈ 3.34 µM)			0.38 (≈ 1.27 µM)	6 (≈ 20 µM)
CO[C@H]1/C=C/O[C@@]2(C)Oc3c(C)c(O)c4c(O)c(c(/C=N/N5CCN(C)CC5)c(O)c4c3C2=O)NC(=O)/C(C)=C\C=C\[C@H](C)[C@H](O)[C@@H](C)[C@@H](O)[C@@H](C)[C@H](OC(C)=O)[C@@H]1C [RIFAMPIN]	4 (≈ 4.86 µM)	> 32		4 (≈ 4.86 µM)			4 (≈ 4.86 µM)	> 32
CN[C@H](CC(C)C)C(=O)N[C@H]1C(=O)N[C@@H](CC(N)=O)C(=O)N[C@H]2C(=O)N[C@H]3C(=O)N[C@H](C(=O)N[C@H](C(=O)O)c4cc(O)cc(O)c4-c4cc3ccc4O)[C@H](O)c3ccc(c(Cl)c3)Oc3cc2cc(c3O[C@@H]2O[C@H](CO)[C@@H](O)[C@H](O)[C@H]2O[C@H]2C[C@](C)(N)[C@H](O)[C@H](C)O2)Oc2ccc(cc2Cl)[C@H]1O [VANCOMYCIN]	4 (≈ 2.76 µM)	48 (≈ 33.1 µM)	4 (≈ 2.76 µM)	16 (≈ 11 µM)			4 (≈ 2.76 µM)	48 (≈ 33.1 µM)

From ChEMBL document CHEMBL1649573, “Protein kinase G is required for intrinsic antibiotic resistance in mycobacteria” (2009)
